Data on nine molecules can be found in paper PMC3330111, “Computational Design of a PDZ Domain Peptide Inhibitor that Rescues CFTR Activity” (PLoS Computational Biology, 2012).

Assay [1] deals with T1, CAL PDZ domain (Homo sapiens, UniProt Q9HD26). The experiment in a line: fluorescence polarization (FP) competition binding. The settings on record: for Ki: FP competition, compared with best previously known hexamer (iCAL35), read-out: Experimental Ki, mark †. The text has this: The inhibitor dissociation constants of top- and poorly-ranked peptide sequences from the [drawing 176] CAL-CFTR design were experimentally determined. As a control, the best known peptide hexamer was also retested. The corresponding N-terminally acetylated peptides were purchased from NEO BioScience (Cambridge, MA) and the [drawing 177] values for the peptides were detected using fluorescence polarization (FP), using the method previously described in [59]. […] Each peptide inhibitor was serially diluted and the protein-peptide mixture was added to each dilution. Finally, the amount of competitive inhibition was tracked using residual fluorescence polarization at temperatures between [drawing 178] . Each [drawing 179] value is reported as an average of three FP experiments conducted on separate days along with the corresponding standard deviation.
Background: Fluorescence polarisation rises when a labelled molecule tumbles more slowly, as on binding a larger partner.

Assay [2] deals with ΔF508-CFTR chloride flux. The experiment in a line: Ussing chamber chloride flux in CFBE-ΔF cells. The settings on record: polarized CFBE-ΔF monolayers, 3.5 hour incubation; for improvement in chloride secretion with respect to control peptide kCAL31: peptide delivered with BioPORTER, change in short circuit current on CFTR-specific inhibitor after amiloride, forskolin, genistein. The format is cell-based, human. The method, then: Ussing chamber experiments were performed as described previously. Polarized monolayers of patient-derived bronchial epithelial cells, CFBE- [drawing 180] F cells (a generous gift of Dr. J.P. Clancy, [63]), were maintained in MEM with 2 mM l-glutamine, 10% fetal bovine serum, 50 units/mL penicillin, [drawing 181] streptomycin, [drawing 182] puromycin, [drawing 183] plasmocin, and [drawing 184] amphotericin B. Cells were grown at [drawing 185] in 5% [drawing 186] . Twenty four hours before treatment the cells were moved to MEM with only penicillin and streptomycin. Peptides were dissolved in DMSO and diluted to [drawing 187] in PBS. Peptide solutions were applied to cells following incubation with BioPORTER delivery reagent (Sigma). […] Following a 3.5 hour incubation with peptide, short circuit currents ( [drawing 188] ) were monitored in Ussing chambers. Following treatment with amiloride, forskolin, and genistein, ΔF508-CFTR chloride flux was measured as the change in [drawing 189] when the CFTR-specific inhibitor, [drawing 190] [64], [65], was applied to the cell monolayer. All measurements were performed at [drawing 191] .

The target of assay [3] is T1, CAL PDZ domain. The experiment in a line: ProLib profile library SPOT array. The class given is binding. The settings on record: 10 µg/ml His-tagged CAL PDZ domain, anti-His/anti-mouse-HRP detection. The method, then: After the [drawing 124] predictions were calculated, the binding of C-termini peptides to CAL was also experimentally assessed using an additional SPOT array. The profile library array (ProLib; Fig. S3 in Text S1) was designed based on the following motif: bbbb [drawing 125] (B = permutation of a defined set of amino acids, b = mixture of 17 amino acids, without C, M and W). The defined set of amino acids were selected based on the HumLib results combined with substitutional analyses with [drawing 126] = A/C/D/E/F/I/K/L/M/N/Q/R/S/T/V/W/Y, [drawing 127] = S/T, [drawing 128] = A/C/D/E/F/I/K/L/M/N/Q/R/S/T/V/W/Y, [drawing 129] = I/L/V (Total number of peptides = 1734+22 internal control sequences). Incubation condition: [drawing 130] His-tagged CAL PDZ domain detected by anti-His (Sigma; 1∶2600)/anti-mouse-HRP (Calbiochem; 1∶2000) antibody sandwich.
Fig. S3. CAL binding data for ProLib spot array. We selected the amino acid prefer-ences of the last 4 C-terminal ligand residues based on their frequency deduced from the 6223-Humlib and the substitutional analysis. […] Incubation condition: 10 µg/ml His-tagged CAL PDZ domain detected by anti-His (Sigma; 1:2600)/anti-mouse-HRP (Calbiochem; 1:2000) antibody sand- […]

Assay [4] concerns ΔF508-CFTR chloride flux. The settings on record: CFBE-ΔF cells, identical experimental conditions; ref [1]; cited from earlier work. The source says: While this effect is clearly statistically significant ( ), we also wished to assess its magnitude relative to the effect of known rescue compounds. The performance of kCAL01 was benchmarked using polarized human airway epithelial cells derived from a CF patient (stably expressing ΔF508-CFTR; CFBE- F cells). In these cells, CFTR rescue is more challenging than in heterologous cells, but the levels of rescue observed are more likely to reflect the physiological situation. Since CFTR modulation is extremely sensitive to experimental con ...

“Also recorded” adds a separate entry of the source. Ends that are not written are not given here.

For the molecule Ac-WQRTRL [kCAL04, Ac-WQRTRL], the inhibition constant Ki (commonly a dissociation constant, usually derived from enzyme kinetics or from competition with a known ligand) at CAL PDZ domain [1] is under 14 µM.
For WQTSII [iCAL35, reference compound], the “improvement in chloride secretion with respect to control peptide kCAL31” value with ΔF508-CFTR chloride flux [2] worked out at 4%.
For Ac-WQKTRL [kCAL03, Ac-WQKTRL], the Ki at CAL PDZ domain [1] is under 14 µM.
Same read-out and setting: for Ac-WQFTRL [kCAL02, Ac-WQFTRL] the value was under 14 µM.
Regarding Ac-WQDSGI [kCAL31], the “Experimental Ki (inhibitor dissociation constant)” value at CAL PDZ domain [1] (FP competition with labeled peptide, 25 mM Tris-HCl pH 8.5, 150 mM NaCl, 0.1 mg/mL bovine IgG, 0.5 mM Thesit, average of three FP experiments on separate days) was “no binding was detected; also recorded: no CAL binding detected”.
On to WQSTRL [HumLib01], for which the “CAL binding in ProLib array” value on CAL PDZ domain [3] is “strongest binder”. The “improvement in CAL binding affinity compared to iCAL35” value on CAL PDZ domain [1] (FP) is “only a marginal improvement”.
For the molecule Ac-WQKTRI [kCAL05, Ac-WQKTRI], the Ki on CAL PDZ domain [1] was under 14 µM.
Turning to `COc1ccc(Cl)cc1Nc1nc(-c2sc(NC(=O)c3ccccc3)nc2C)cs1` [corr-4a], the “increase in ΔF508-CFTR levels” value in the assay with ΔF508-CFTR chloride flux [4] is 15%.
As to Ac-WQVTRV [kCAL01, Ac-WQVTRV], on CAL PDZ domain [1], the “binding efficiency (ratio of inhibitor potency, ΔG, to molecular mass) relative to F*-iCAL36” value was “approximately twice” and the Ki was under 14 µM. On CAL PDZ domain [1] (FP), the “improvement in CAL binding affinity compared to iCAL35” value is “six-fold” and the “improvement in CAL binding affinity over HumLib01” value was “six-fold”. In addition, on CAL PDZ domain [1] (versus best known natural ligand ANGLMQTSKL), the “fold higher affinity than any comparable natural ligand” value is listed as 9 fold. The “fold tighter binding to CAL than the CFTR C-terminus” value on CAL PDZ domain [1] (versus wild-type CFTR sequence TEEEVQDTRL) was determined as 170 fold. Also, the “improvement in chloride secretion with respect to reference peptide iCAL35” value in the assay with ΔF508-CFTR chloride flux [2] (BioPORTER delivery) turned out to be 8%. Also, in the assay on ΔF508-CFTR chloride flux [2], the “improvement in chloride secretion with respect to control peptide kCAL31” value is on record as 12%.
